Square brackets hold non-standard residues; d marks the D form. Peptide text beside a SMILES is read from it. Sar = CNCC(=O)O
Tests used:
[1] = test system: Human IL-8 secretion, Normal Human Epidermal Keratinocytes (NHEK); test: Human IL-8 production in UVB-irradiated NHEK (ELISA); format: cell-based; conditions: Table 10, 0.20%; for Human IL-8 Content, Average: 40 mJ/cm2 UVB; for Human IL-8 Content, Entry 1: passage 2 + 3, 40 mJ/cm2 UVB; for Human IL-8 Content, Entry 2: passage 2 + 4, 40 mJ/cm2 UVB; for Human IL-8 Content, Entry 3: passage 2 + 5, 40 mJ/cm2 UVB; for Human IL-8 Content, Entry 4: passage 2 + 6, 40 mJ/cm2 UVB
Procedure: (§1) Normal Human Epidermal Keratinocytes (NHEK) (PromoCell No. C-12008);
(§2) Positive Control: 40 mJ/cm^2 UVB,
(§3) Negative Control: No UVB irradiation;
(§4) a. Rinse the confluent NHEK cells with sterile D-PBS then trypsinize all cells and perform cell counting.
(§5) b. Dilute the cell density to 4˜8E+04/mL and seed 0.5 mL cell liquid (equals to 2˜4E+04 cells) each well in 24 well plate.
(§6) c. Incubate NHEK cells at 37° C., 5% CO2 until subconfluence.
(§7) d. Prepared dosing solution of testing material in Complete Medium: 0.4%, 0.2%, 0.1%, 0.05%.
(§8) e. Rinse the NHEK cells with sterile D-PBS and discard rinse buffer. Add 400 μL of controls and testing materials in different concentrations into NHEK cells in 24 well plates.
(§9) f. Pre-incubate NHEK cells with testing material at 37° C., 5% CO2 for about 6 hours.
(§10) g. After pre-incubating for about 6 hours, wash the NHEK cells with sterile D-PBS for twice then add […] sterile D-PBS for UVB irradiation.
(§11) h. UVB intensity is about 2300 μW/cm^2 and UVB energy is about 40 mJ/cm^2.
(§12) i. After UVB irradiation, discard sterile D-PBS and wash again. Add 400 μL of the same dosing solution in to each wells.
(§13) j. Post-incubate at 37° C., 5% CO2 for about 18 hours.
(§14) k. After post-incubating for 18 hours, collect the supernatant of controls and testing materials.
(§15) l. Determine the IL-6/IL-8 content of the supernatant by R&D ELISA kit as mentioned previously.
(§16) Normal Human Epidermal Keratinocytes (NHEK) were treated by the above-mentioned glycine derivatives for evaluating their anti-inflammatory effect on keratinocytes in this example.

[2] = test system: Human IL-6 secretion, Normal Human Epidermal Keratinocytes (NHEK); test: Human IL-6 production in UVB-irradiated NHEK (ELISA); format: cell-based; conditions: Table 9, 0.20%, Positive Control 100%; for Human IL-6 Content, Average: 40 mJ/cm^2 UVB; for Human IL-6 Content, Entry 1: passage 2 + 2, 40 mJ/cm^2 UVB; for Human IL-6 Content, Entry 2 / Human IL-6 Content, Entry 3: passage 2 + 3, 40 mJ/cm^2 UVB
Procedure: as §1, §2, §3, §4, §5, §6, §7, §8, §9, §10, §11, §12, §13, §14, §15, §16

| Compound | Human IL-8 Content, Average [1] [%] | Human IL-8 Content, Entry 1 [1] [%] | Human IL-8 Content, Entry 2 [1] [%] | Human IL-8 Content, Entry 3 [1] [%] | Human IL-8 Content, Entry 4 [1] [%] | Human IL-6 Content, Average [2] [%] | Human IL-6 Content, Entry 1 [2] [%] | Human IL-6 Content, Entry 2 [2] [%] | Human IL-6 Content, Entry 3 [2] [%] |
| --- | --- | --- | --- | --- | --- | --- | --- | --- | --- |
| CC(=O)NCC(=O)N(C)CC(=O)O [Ac-Gly-Sar, [(2-Acetylamino-acetyl)-methyl-amino]-acetic acid] (Ac-Gly-[Sar]-OH) | 76 | 73 | 70 | 74 | 88 | 14 | 14 | 21 | 7 |
| CC(=O)NCC(=O)NCC(=O)O [Ac-Gly-Gly, (2-acetylamino-acetylamino)-acetic acid] | 59 |  | 68 | 54 | 53 | 20 | 12 | 16 | 33 |
| CC(=O)NCC(=O)NCCCC(=O)O [Ac-Gly-GABA, 4-(2-Acetylamino-acetylamino)-butyric acid] | 70 | 59 | 70 | 64 | 87 | 14 | 11 | 25 | 6 |

— patent US20140314697A1, “Method for Inhibiting Inflammation and Reducing Melanophilin Expression with Glycine Derivatives And the Composition Thereof” (CORUM INC., priority 2013, published 2014)
